Values of other authors, collected in patent US7381426B2, “Targeted delivery of bioactive factors to the systemic skeleton” (Southwest Research Institute, priority 2002, dated 2008).

Test system: hindlimb unloading in rats
Conditions: infusion 2 μg/kg/day, hindlimb unloaded rats

For TGF-β, the “effect on unloading-induced bone changes” value is listed as “corrects the decrease in bone mass, calcium content, osteoblast number and mineralization rate”.
